In experiment [1] the test system is HeLa P4 cells. Nature of the experiment: Cell viability assay (CellTiter 96 AQueous One). It is filed as cell-based. Conditions: read-out: EC50 (cell viability).
Experiment [2] concerns HIVpro1-FT (anti-parallel DNA G4). Nature of the experiment: FRET melting assay, HIVpro1-FT. It is filed as binding, HIV-1. Conditions: ligand 1 μM, DNA 0.2 μM. On the procedure: (§1) Doubly labelled oligonucleotides with fluorescein and TAMRA were purchased lyophilized and RP-cartridge purified from Eurogentec (Kanaka Eurogentec, Seraing, Belgium). FRET melting experiments were run on Stratagene Mx3005P real-time PCR equipment in 96-well plates on the DNA sequences listed Table 1. Experiments were performed in 10 mM lithium cacodylate buffer (pH 7.2) and 10 mM KCl and 90 mM LiCl as previously described.[45,46] The DNA concentration was 0.2 μM. The stabilization (ΔT1/2) induced by compounds was calculated as the difference between the Tm of the nucleic acid alone and that measured with a ligand concentration of 1 μM. Data are presented as averages of three independent measurements, each conducted in duplicate (λexc = 492 nm, λem = 516 nm, T interval = 25–95 °C, ramp: 25 °C for 5 min, then 1 °C min^−1, measurements every 1 °C, 8× magnification of the fluorescence signal). The G4 selectivity of the ligands with respect to the duplex was evaluated by determining the Tm values in the presence of 0, 3 or 10 μM of the duplex competitor ds26.
(§2) In this assay, we performed thermal denaturation experiments by heating and recording the fluorescence of DNA oligonucleotides doubly labelled with fluorescein and TAMRA fluorophores (Fig. 3 and S7). Ligand binding to the G4 stabilises the structure, resulting in an increase in the half-dissociation temperature of the structure (ΔT1/2). As a first approximation, the higher the ΔT1/2 (ΔT1/2 higher), the higher the affinity of the ligand for the target.[45]
(§3) The fluorescently labeled oligonucleotides were dissolved at a concentration of 0.2 μM in 10 mM lithium cacodylate buffer (pH 7.2) with 10 mM KCl and 90 mM LiCl. […] E) Radar plot representation that summarizes the FRET-melting results (ΔT1/2 (°C)) for each ligand in the presence of HIVpro1-FT (green), HIVpro2-FT (grey), LTR4-FT (bleu), and Htel-FT (red). Data are the results of at least three independent experiments in which each data point was performed in duplicate.

Experiment [3] has as its system DK66 (DNA, duplex) CGCGAATTCGCG
Nature of the experiment: native ESI-MS. The note with it: 100 mM ammonium acetate (NH4+), no K+, apparent, 10 μM DNA, 20 μM ligand, 4 °C incubation.

For experiment [4], the system named is rLTR4-5′Cy5 (parallel RNA G4). In words: Ligand-induced fluorescence quenching assay (FQA), rLTR4-5′Cy5. It is filed as binding, HIV-1. How it is done: (§4) Cy5 labelled oligonucleotides were purchased lyophilized and RP-cartridge purified from Eurogentec (Kanaka Eurogentec, Seraing, Belgium). The ligand-induced fluorescence quenching assay was conducted as previously described.[47] A Stratagene Mx3005P instrument was used to carry out the assay in 96-well plates. The filters for excitation and emission were set at 635 nm and 665 nm, respectively. The gain was used at 8×. The labeled oligonucleotide was used at 10 nM, and the buffer was 10 mM lithium cacodylate (pH 7.2), 10 mM KCl, and 90 mM LiCl in a final volume of 50 μL. The oligonucleotide was heated at 90 °C for 5 min and put in ice to anneal. The ligand was added over a range of concentrations between 0 and 80 μM. A competitor, ds26, was also added at 3 or 10 μM. Each experimental condition was tested in triplicate except for the ligand alone with the buffer, which was tested in duplicate. The instrument was programmed to heat the plate for 10 min at 25 °C and measure the fluorescence after 1 min for 5 cycles. The fluorescence of each sample was normalized, and the fluorescence of the ligand alone was subtracted.
(§5) We then addressed the binding of the DBA series to the rLTR4 RNA G4. The FRET melting assay was not appropriate for investigating ligand binding to this RNAs due to its high thermal stability (Tm > 72 °C).[26] We have therefore used a ligand-induced fluorescence quenching assay (FQA) to analyse the interaction of the DBAs with either 5′ or 3′ fluorescently labelled RNAs (Fig. S8). Since planar G4-ligands generally stack on an accessible G-quartet,[94–96] we expect the DBAs to also recognize G4s by stacking interactions. To conduct a fluorescence quenching experiment, a CY5 fluorophore is attached on the 3′ or 5′ end of the RNA. […] Thus, upon interaction of the ligand with the G-quartet, the ligand induces the quenching of the fluorescence emission. This test enables determination of the apparent association constants (Ka) of each DBA with the 5′ or 3′ quartet of the G4 structure (Fig. 4, Table S3). […] A similar difference in G-tetrad binding affinities has previously been observed for TMPyP4 and PhenDC3.[47]
(§6) The fluorescently labeled oligonucleotides were dissolved at a concentration of 10 nM in 10 mM lithium cacodylate buffer (pH 7.2) with 10 mM KCl and 90 mM LiCl. […] Data are the results of at least three independent experiments in which each data point was performed in duplicate.

Experiment [5] deals with Htel-FT (human telomeric DNA G4). In words: FRET melting assay, Htel-FT. It is filed as binding. Conditions: ligand 1 μM, DNA 0.2 μM. On the procedure:
as §1, §2, §3

Experiment [6] deals with TG4T (DNA, G4) TGGGGT. Nature of the experiment: native ESI-MS. The note with it: 100 mM ammonium acetate (NH4+), no K+; apparent, site 1 of 2; 10 μM DNA, 20 μM ligand, 4 °C incubation.
The subject of experiment [7] is rLTR4-3′Cy5 (parallel RNA G4). In words: Ligand-induced fluorescence quenching assay (FQA), rLTR4-3′Cy5. It is filed as binding, HIV-1. On the procedure: as §4, §5, §6
The mark [8] stands for this setting: HeLaP4, 24 h, 24 h treatment, formazan quantification.

5 compounds from paper PMC13334477 (RSC Medicinal Chemistry, 2026) can be followed below.

Each structure is given as a SMILES string. “And” between values parts separate entries of the source, which are not always exact repeats. Identical values can stand only once. Like-named read-outs stand apart in the source and are kept apart here.

By EC50 is commonly meant the concentration that produces a half-maximal response. One may read the Kd as the free concentration of one partner at which half of the binding sites on the other are occupied at equilibrium, for simple one-to-one binding. Low readings indicate a tighter complex, high ones a looser complex. For the compound `COc1ccc2c(ccc3c2cc2c4ccc(OC)cc4ccc2[n+]3-c2ccccc2)c1` [DBA1], the EC50 in experiment [1] (setting [8]) is 5.2 µM. For the same compound, the “ΔT1/2 HIVpro1” value in experiment [2] (+10µM ds26) was found to be 4.4±0.7 °C; in experiment [2] (No ds26) it was 6.9±0.04 °C. Moreover, the Kd1 in experiment [3] (almost no complex detected) came out at 4833.59 µM; in experiment [6], 14.69 µM. Further, the “Ka rLTR4-5′Cy5 FQA” value is 1.1±0.06 10^5 M in experiment [4] (+10µM ds26) and 1.8±0.07 10^5 M in experiment [4] (No ds26). For the same compound, the dissociation constant (Kd) was found to be 8.9 ± 1.8 µM in experiment [4] (+10µM ds26), 5.5 ± 1.5 µM in experiment [4] (No ds26), 3.3 ± 0.4 µM in experiment [7] (+10µM ds26) and 3.2 ± 0.5 µM in experiment [7] (No ds26). Besides, the “ΔT1/2 Htel” value in experiment [5] (+10µM ds26) was found to be 13±0.5 °C; in experiment [5] (No ds26), 17±0.2 °C. In addition, the “Ka rLTR4-3′Cy5 FQA” value was 2.8±0.23 10^5 M in experiment [7] (+10µM ds26) and 3.1±0.2 10^5 M in experiment [7] (No ds26).
For the compound `COC(=O)c1ccc(-[n+]2c3ccc4cc(OC)ccc4c3cc3c4ccc(OC)cc4ccc32)cc1` [DBA2], the concentration giving a half-maximal response (EC50) in experiment [1] (setting [8]) turned out to be 2.9 µM. Further, the “ΔT1/2 HIVpro1” value in experiment [2] (+10µM ds26) was 3.9±0.2 °C; in experiment [2] (No ds26), 5.6±0.3 °C and 5.6 °C. Besides, the Kd1 in experiment [3] (almost no complex detected) was 711.55 µM; in experiment [6], 6.09 µM. In addition, the “Ka rLTR4-5′Cy5 FQA” value in experiment [4] (+10µM ds26) is reported as 0.9±0.03 10^5 M; in experiment [4] (No ds26), 1.1±0.03 10^5 M. The dissociation constant (Kd) was 11.6 ± 3.8 µM in experiment [4] (+10µM ds26), 9.3 ± 2.9 µM in experiment [4] (No ds26), 8.6 ± 1.3 µM in experiment [7] (+10µM ds26) and 6.7 ± 1.5 µM in experiment [7] (No ds26). Moreover, the “ΔT1/2 Htel” value in experiment [5] (+10µM ds26) worked out at 12±0.6 °C. In addition, the “Ka rLTR4-3′Cy5 FQA” value was 1.2±0.08 10^5 M in experiment [7] (+10µM ds26) and 1.5±0.06 10^5 M in experiment [7] (No ds26).
As for `COc1ccc(-[n+]2c3ccc4cc(OC)ccc4c3cc3c4ccc(OC)cc4ccc32)cc1` [DBA3], the EC50 in experiment [1] (setting [8]) is 4.3 µM. In addition, the “ΔT1/2 HIVpro1” value in experiment [2] (+10µM ds26) is 5.0±0.1 °C; in experiment [2] (No ds26) it was 6.3±0.7 °C and 6.3 °C. Moreover, the Kd1 in experiment [3] (almost no complex detected) turned out to be 1071.92 µM; in experiment [6], 13.62 µM. The “Ka rLTR4-5′Cy5 FQA” value in experiment [4] (+10µM ds26) was 0.9±0.07 10^5 M; in experiment [4] (No ds26), 1.2±0.06 10^5 M. Also, the Kd amounted to 11.1 ± 1.4 µM in experiment [4] (+10µM ds26), 8.7 ± 1.6 µM in experiment [4] (No ds26), 6.9 ± 1.1 µM in experiment [7] (+10µM ds26) and 6.2 ± 1 µM in experiment [7] (No ds26). Further, the “ΔT1/2 Htel” value in experiment [5] (+10µM ds26) came to 14±0.1 °C. The “Ka rLTR4-3′Cy5 FQA” value in experiment [7] (+10µM ds26) was 1.5±0.09 10^5 M; in experiment [7] (No ds26), 1.6±0.11 10^5 M.
On to `COc1ccc2c(ccc3c2cc2c4ccc(OC)cc4ccc2[n+]3-c2ccc([N+](=O)[O-])cc2)c1` [DBA4], for which the EC50 in experiment [1] (setting [8]) is around 15 µM; in experiment [1] (HeLaP4, 24 h), 15.4 µM. Moreover, the “ΔT1/2 HIVpro1” value in experiment [2] (+10µM ds26) was 5.1±0.5 °C; in experiment [2] (No ds26) it was 7.0±2.0 °C and 7 °C. Also, the Kd1 in experiment [3] (site 1 of 2) was found to be 165.13 µM; in experiment [6], 5.42 µM. In addition, the results for the “Ka rLTR4-5′Cy5 FQA” value in experiment [4] (+10µM ds26) and in experiment [4] (No ds26) were 1.2±0.05 10^5 M and 2.3±0.1 10^5 M, respectively. The Kd in experiment [4] (+10µM ds26) came out at 8.4 ± 2.1 µM; in experiment [4] (No ds26), 4.4 ± 1 µM; in experiment [7] (+10µM ds26) it was 5.3 ± 1.1 µM; in experiment [7] (No ds26) it was 3.3 ± 0.4 µM. For the same compound, in experiment [5] (+10µM ds26), the “ΔT1/2 Htel” value turned out to be 14±0.3 °C. Besides, the “Ka rLTR4-3′Cy5 FQA” value in experiment [7] (+10µM ds26) is recorded as 1.9±0.1 10^5 M; in experiment [7] (No ds26) it was 3.0±0.24 10^5 M.
For the compound `c1ccc(-[n+]2c3ccc4ccccc4c3cc3c4ccccc4ccc32)cc1` [DBA5], the EC50 was around 15 µM in experiment [1] (24 h treatment, formazan quantification) and 16.7 µM in experiment [1] (setting [8]). Further, the “ΔT1/2 HIVpro1” value in experiment [2] (+10µM ds26) came out at 3.6±0.04 °C; in experiment [2] (No ds26), 5.0±0.03 °C. The Kd1 in experiment [3] (site 1 of 2) was 75.39 µM; in experiment [6], 21.57 µM. Moreover, the “Ka rLTR4-5′Cy5 FQA” value in experiment [4] (+10µM ds26) is recorded as 1.1±0.04 10^5 M; in experiment [4] (No ds26), 1.6±0.07 10^5 M. Further, the equilibrium dissociation constant (Kd) in experiment [4] (+10µM ds26) turned out to be 9.5 ± 2.6 µM; in experiment [4] (No ds26), 6.2 ± 1.4 µM; in experiment [7] (+10µM ds26), 4 ± 0.6 µM; in experiment [7] (No ds26), 4 ± 0.3 µM. For the same compound, the “ΔT1/2 Htel” value in experiment [5] (+10µM ds26) is 9.0±0.1 °C; in experiment [5] (No ds26), 12.2±0.1 °C. For the same compound, the figures for the “Ka rLTR4-3′Cy5 FQA” value in experiment [7] (+10µM ds26) and in experiment [7] (No ds26) were 2.5±0.2 10^5 M and 2.5±0.31 10^5 M, respectively.
